# *1 amine or outer side, *2 acyl side, *3 side chain or, on linkers, in order; H or OH if unused. Where a SMILES comes first, the peptide text is derived from it. Bridges are numbered along the chain shown (N, C = ends). [ ]: non-standard residue; d: D form. Trp(1-CH2COOH) = N[C@@H](Cc1cn(CC(=O)O)c2ccccc12)C(=O)O; Phe(3,4,5-F3) = N[C@@H](Cc1cc(F)c(F)c(F)c1)C(=O)O; Phe(3,4-F2) = N[C@@H](Cc1ccc(F)c(F)c1)C(=O)O; X6 = NC(=O)CCC(=O)[C@H](CSCC(=O)[*:2])N[*:1]; NMeF = CN[C@@H](Cc1ccccc1)C(=O)O; X1 = O=C([C@H]1COCCN1[*:1])[*:2]; dHyp = O=C(O)[C@H]1C[C@H](O)CN1; NMeNle = CCCC[C@H](NC)C(=O)O; Orn = NCCC[C@H](N)C(=O)O; Dab = NCC[C@H](N)C(=O)O
# Molecular target: T1, Human PD-L1/PD-1 (Homo sapiens, UniProt Q9NZQ7)
# T1 construct: TVMV protease cleavage site (C); made in house; host or cells: HEK293T cells
# T1 sequence (Q9NZQ7 with tags, fused parts or gaps): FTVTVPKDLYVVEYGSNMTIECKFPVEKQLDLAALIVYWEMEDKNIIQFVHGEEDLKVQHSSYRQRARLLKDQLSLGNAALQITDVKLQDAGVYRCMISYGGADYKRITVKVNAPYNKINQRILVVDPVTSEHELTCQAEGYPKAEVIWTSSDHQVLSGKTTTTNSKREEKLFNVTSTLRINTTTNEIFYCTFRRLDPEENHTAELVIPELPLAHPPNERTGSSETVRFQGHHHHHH
# Experiment: HTRF Human PD-L1/PD-1 binding assay (PD-1-Ig/PD-L1-His)
# Conditions: PD-L1-His 10 nM, PD-1-Ig 20 nM; class symbol; read-out: HTRF Human PD-L1/PD-1 Binding Assay IC50 Range
# In short: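 Truncated Fc-fused human PD-1 (aa 25-167) at 20 nM and His-tagged PD-L1 (aa 18-239) at 10 nM final are used, with peptides preincubated 15 min with PD-L1. Detection uses europium-cryptate anti-Ig and APC anti-His antibodies; 665/620 nm ratio.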
row,Structure (SMILES),IC50
1,"CCCC[C@H]1C(=O)N2C[C@@H](O)C[C@@H]2C(=O)N[C@@H](CC(=O)O)C(=O)N[C@@H](C(C)C)C(=O)N(C)[C@@H](Cc2ccccc2)C(=O)N[C@@H](CCC(=O)O)C(=O)N2C[C@@H](O)C[C@@H]2C(=O)N[C@@H](Cc2c[nH]c3ccccc23)C(=O)N[C@@H](Cc2ccc(O)cc2)C(=O)N[C@@H](CC(C)C)C(=O)N[C@H](C(=O)NCC(N)=O)CSCC(=O)N[C@@H](Cc2ccc(F)c(F)c2)C(=O)N(C)[C@@H](Cc2ccccc2)C(=O)N1C [Example 9277] ({CH2CO}-[Phe(3,4-F2)][NMeF][NMeNle][dHyp]DV[NMeF]E[dHyp]WYLCG-NH2; thioether N-13)",1 to 9.9 nM
2,"CCCC[C@H]1C(=O)N2C[C@@H](O)C[C@@H]2C(=O)N[C@@H](CC(=O)O)C(=O)N[C@@H](C(C)C)C(=O)N(C)[C@@H](Cc2ccccc2)C(=O)N[C@@H](CCC(=O)O)C(=O)N2C[C@@H](O)C[C@@H]2C(=O)N[C@@H](Cc2c[nH]c3ccccc23)C(=O)N[C@@H](Cc2ccc(O)cc2)C(=O)N[C@@H](CCCN)C(=O)N[C@H](C(=O)NCC(N)=O)CSCC(=O)N[C@@H](Cc2ccc(F)c(F)c2)C(=O)N(C)[C@@H](Cc2ccccc2)C(=O)N1C [Example 9278] ({CH2CO}-[Phe(3,4-F2)][NMeF][NMeNle][dHyp]DV[NMeF]E[dHyp]WY[Orn]CG-NH2; thioether N-13)",1 to 9.9 nM
3,"CCCC[C@H]1C(=O)N2C[C@@H](O)C[C@@H]2C(=O)N[C@@H](CC(=O)O)C(=O)N[C@@H](C(C)C)C(=O)N(C)[C@@H](Cc2ccccc2)C(=O)N[C@@H](CCC(=O)O)C(=O)N2CCOC[C@@H]2C(=O)N[C@@H](Cc2c[nH]c3ccccc23)C(=O)N[C@@H](Cc2ccc(O)cc2)C(=O)N[C@@H](CCCN)C(=O)N[C@H](C(=O)NCC(N)=O)CSCC(=O)N[C@@H](Cc2ccc(F)c(F)c2)C(=O)N(C)[C@@H](Cc2ccccc2)C(=O)N1C [Example 9279] ({CH2CO}-[Phe(3,4-F2)][NMeF][NMeNle][dHyp]DV[NMeF]E[X1]WY[Orn]CG-NH2; thioether N-13)",1 to 9.9 nM
4,"CCCC[C@H]1C(=O)N2CCOC[C@@H]2C(=O)N[C@@H](CC(=O)O)C(=O)N[C@@H](C(C)C)C(=O)N(C)[C@@H](Cc2ccccc2)C(=O)N[C@@H](CCC(=O)O)C(=O)N2C[C@@H](O)C[C@@H]2C(=O)N[C@@H](Cc2c[nH]c3ccccc23)C(=O)N[C@@H](Cc2ccc(O)cc2)C(=O)N[C@@H](CCCN)C(=O)N[C@H](C(=O)NCC(N)=O)CSCC(=O)N[C@@H](Cc2cc(F)c(F)c(F)c2)C(=O)N(C)[C@@H](Cc2ccccc2)C(=O)N1C [Example 9280] ({CH2CO}-[Phe(3,4,5-F3)][NMeF][NMeNle][X1]DV[NMeF]E[dHyp]WY[Orn]CG-NH2; thioether N-13)",10 to 99.9 nM
5,"CCCC[C@H]1C(=O)N2CCOC[C@@H]2C(=O)N[C@@H](CC(=O)O)C(=O)N[C@@H](C(C)C)C(=O)N(C)[C@@H](Cc2ccccc2)C(=O)N[C@@H](CCC(=O)O)C(=O)N2CCOC[C@@H]2C(=O)N[C@@H](Cc2c[nH]c3ccccc23)C(=O)N[C@@H](Cc2ccc(O)cc2)C(=O)N[C@@H](CC(C)C)C(=O)N[C@H](C(=O)NCC(N)=O)CSCC(=O)N[C@@H](Cc2ccc(F)c(F)c2)C(=O)N(C)[C@@H](Cc2ccccc2)C(=O)N1C [Example 9281] ({CH2CO}-[Phe(3,4-F2)][NMeF][NMeNle][X1]DV[NMeF]E[X1]WYLCG-NH2; thioether N-13)",1 to 9.9 nM
6,"CCCC[C@H]1C(=O)N2CCOC[C@@H]2C(=O)N[C@@H](CC(=O)O)C(=O)N[C@@H](C(C)C)C(=O)N(C)[C@@H](Cc2ccccc2)C(=O)N[C@@H](CCC(=O)O)C(=O)N2CCOC[C@@H]2C(=O)N[C@@H](Cc2c[nH]c3ccccc23)C(=O)N[C@@H](Cc2ccc(O)cc2)C(=O)N[C@@H](CCCN)C(=O)N[C@H](C(=O)NCC(N)=O)CSCC(=O)N[C@@H](Cc2cc(F)c(F)c(F)c2)C(=O)N(C)[C@@H](Cc2ccccc2)C(=O)N1C [Example 9282] ({CH2CO}-[Phe(3,4,5-F3)][NMeF][NMeNle][X1]DV[NMeF]E[X1]WY[Orn]CG-NH2; thioether N-13)",10 to 99.9 nM
7,"CCCC[C@H]1C(=O)N2CCOC[C@@H]2C(=O)N[C@@H](CC(=O)O)C(=O)N[C@@H](C(C)C)C(=O)N(C)[C@@H](Cc2ccccc2)C(=O)N[C@@H](Cc2ccc(O)cc2)C(=O)N2CCOC[C@@H]2C(=O)N[C@@H](Cc2c[nH]c3ccccc23)C(=O)N[C@@H](Cc2ccc(O)cc2)C(=O)N[C@@H](CC(C)C)C(=O)N[C@H](C(=O)NCC(N)=O)CSCC(=O)N[C@@H](Cc2cc(F)c(F)c(F)c2)C(=O)N(C)[C@@H](Cc2ccccc2)C(=O)N1C [Example 9283] ({CH2CO}-[Phe(3,4,5-F3)][NMeF][NMeNle][X1]DV[NMeF]Y[X1]WYLCG-NH2; thioether N-13)",1 to 9.9 nM
8,"CCCC[C@H]1C(=O)N2CCOC[C@@H]2C(=O)N[C@@H](CC(=O)O)C(=O)N[C@@H](C(C)C)C(=O)N(C)[C@@H](Cc2ccccc2)C(=O)N[C@@H](Cc2ccc(O)cc2)C(=O)N2CCOC[C@@H]2C(=O)N[C@@H](Cc2c[nH]c3ccccc23)C(=O)N[C@@H](Cc2ccc(O)cc2)C(=O)N[C@@H](CCCN)C(=O)N[C@H](C(=O)NCC(N)=O)CSCC(=O)N[C@@H](Cc2cc(F)c(F)c(F)c2)C(=O)N(C)[C@@H](Cc2ccccc2)C(=O)N1C [Example 9284] ({CH2CO}-[Phe(3,4,5-F3)][NMeF][NMeNle][X1]DV[NMeF]Y[X1]WY[Orn]CG-NH2; thioether N-13)",1 to 9.9 nM
9,"CCCC[C@H]1C(=O)N2CCC[C@@H]2C(=O)N[C@@H](CC(=O)O)C(=O)N[C@@H](C(C)C)C(=O)N(C)[C@@H](Cc2ccccc2)C(=O)N[C@@H](CCC(=O)O)C(=O)N2C[C@@H](O)C[C@@H]2C(=O)N[C@@H](Cc2c[nH]c3ccccc23)C(=O)N[C@@H](Cc2ccc(O)cc2)C(=O)N[C@@H](CC(C)C)C(=O)N[C@H](C(=O)NCC(N)=O)CSCC(=O)N[C@@H](Cc2cc(F)c(F)c(F)c2)C(=O)N(C)[C@@H](Cc2ccccc2)C(=O)N1C [Example 9285] ({CH2CO}-[Phe(3,4,5-F3)][NMeF][NMeNle][dP]DV[NMeF]E[dHyp]WYLCG-NH2; thioether N-13)",1 to 9.9 nM

# The next lines start with the values.
row,IC50,Structure (SMILES)
1,1 to 9.9 nM,"CCCC[C@H]1C(=O)N2C[C@@H](O)C[C@@H]2C(=O)N[C@@H](CC(=O)O)C(=O)N[C@@H](C(C)C)C(=O)N(C)[C@@H](Cc2ccccc2)C(=O)N[C@@H](CCC(=O)O)C(=O)N2CCOC[C@@H]2C(=O)N[C@@H](Cc2cn(CC(=O)O)c3ccccc23)C(=O)N[C@@H](Cc2ccc(O)cc2)C(=O)N[C@@H](CCCN)C(=O)N[C@H](C(=O)NCC(N)=O)CSCC(=O)N[C@@H](Cc2cc(F)c(F)c(F)c2)C(=O)N(C)[C@@H](Cc2ccccc2)C(=O)N1C [Example 9270] ({CH2CO}-[Phe(3,4,5-F3)][NMeF][NMeNle][dHyp]DV[NMeF]E[X1][Trp(1-CH2COOH)]Y[Orn]CG-NH2; thioether N-13)"
2,1 to 9.9 nM,"CCCC[C@H]1C(=O)N2C[C@@H](O)C[C@@H]2C(=O)N[C@@H](CC(=O)O)C(=O)N[C@@H](C(C)C)C(=O)N(C)[C@@H](Cc2ccccc2)C(=O)N[C@@H](CCC(=O)O)C(=O)N2CCOC[C@@H]2C(=O)N[C@@H](Cc2cn(CC(=O)O)c3ccccc23)C(=O)N[C@@H](Cc2ccc(O)cc2)C(=O)N[C@@H](CCN)C(=O)N[C@H](C(=O)CCC(N)=O)CSCC(=O)N[C@@H](Cc2cc(F)c(F)c(F)c2)C(=O)N(C)[C@@H](Cc2ccccc2)C(=O)N1C [Example 9271] (cyclo(DV[NMeF]E[X1][Trp(1-CH2COOH)]Y[Dab][X6][Phe(3,4,5-F3)][NMeF][NMeNle][dHyp]))"
3,1 to 9.9 nM,"CCCC[C@H]1C(=O)N2C[C@@H](O)C[C@@H]2C(=O)N[C@@H](CC(=O)O)C(=O)N[C@@H](C(C)C)C(=O)N(C)[C@@H](Cc2ccccc2)C(=O)N[C@@H](Cc2ccc(O)cc2)C(=O)N2C[C@@H](O)C[C@@H]2C(=O)N[C@@H](Cc2c[nH]c3ccccc23)C(=O)N[C@@H](Cc2ccc(O)cc2)C(=O)N[C@@H](CC(C)C)C(=O)N[C@H](C(=O)NCC(N)=O)CSCC(=O)N[C@@H](Cc2cc(F)c(F)c(F)c2)C(=O)N(C)[C@@H](Cc2ccccc2)C(=O)N1C [Example 9273] ({CH2CO}-[Phe(3,4,5-F3)][NMeF][NMeNle][dHyp]DV[NMeF]Y[dHyp]WYLCG-NH2; thioether N-13)"
4,1 to 9.9 nM,"CCCC[C@H]1C(=O)N2C[C@@H](O)C[C@@H]2C(=O)N[C@@H](CC(=O)O)C(=O)N[C@@H](C(C)C)C(=O)N(C)[C@@H](Cc2ccccc2)C(=O)N[C@@H](Cc2ccc(O)cc2)C(=O)N2C[C@@H](O)C[C@@H]2C(=O)N[C@@H](Cc2c[nH]c3ccccc23)C(=O)N[C@@H](Cc2ccc(O)cc2)C(=O)N[C@@H](CCCN)C(=O)N[C@H](C(=O)NCC(N)=O)CSCC(=O)N[C@@H](Cc2cc(F)c(F)c(F)c2)C(=O)N(C)[C@@H](Cc2ccccc2)C(=O)N1C [Example 9274] ({CH2CO}-[Phe(3,4,5-F3)][NMeF][NMeNle][dHyp]DV[NMeF]Y[dHyp]WY[Orn]CG-NH2; thioether N-13)"
5,1 to 9.9 nM,"CCCC[C@H]1C(=O)N2C[C@@H](O)C[C@@H]2C(=O)N[C@@H](CC(=O)O)C(=O)N[C@@H](C(C)C)C(=O)N(C)[C@@H](Cc2ccccc2)C(=O)N[C@@H](CCC(=O)O)C(=O)N2C[C@@H](O)C[C@@H]2C(=O)N[C@@H](Cc2c[nH]c3ccccc23)C(=O)N[C@@H](Cc2ccc(O)cc2)C(=O)N[C@@H](CC(C)C)C(=O)N[C@H](C(=O)NCC(N)=O)CSCC(=O)N[C@@H](Cc2cc(F)c(F)c(F)c2)C(=O)N(C)[C@@H](Cc2ccccc2)C(=O)N1C [Example 9275] ({CH2CO}-[Phe(3,4,5-F3)][NMeF][NMeNle][dHyp]DV[NMeF]E[dHyp]WYLCG-NH2; thioether N-13)"
6,1 to 9.9 nM,"CCCC[C@H]1C(=O)N2C[C@@H](O)C[C@@H]2C(=O)N[C@@H](CC(=O)O)C(=O)N[C@@H](C(C)C)C(=O)N(C)[C@@H](Cc2ccccc2)C(=O)N[C@@H](CCC(=O)O)C(=O)N2C[C@@H](O)C[C@@H]2C(=O)N[C@@H](Cc2c[nH]c3ccccc23)C(=O)N[C@@H](Cc2ccc(O)cc2)C(=O)N[C@@H](CCCN)C(=O)N[C@H](C(=O)NCC(N)=O)CSCC(=O)N[C@@H](Cc2cc(F)c(F)c(F)c2)C(=O)N(C)[C@@H](Cc2ccccc2)C(=O)N1C [Example 9276] ({CH2CO}-[Phe(3,4,5-F3)][NMeF][NMeNle][dHyp]DV[NMeF]E[dHyp]WY[Orn]CG-NH2; thioether N-13)"
